In patent US8101792B2, “Compounds isolated from Antrodia cinnamomea and use thereof” (Simpson Biotech Co., Ltd., priority 2007, dated 2012):
Like-named read-outs stand apart in the source and are kept apart here. Each block holds one molecule with its values, some of them ahead of it.

How the values were obtained:
LLC cells = conditions: cited from earlier work
[1] = Conversion of metabolites in bile samples diluted with water and incubated at 37° C.; format: physicochemical; conditions: bile diluted by same volume water, 37° C. bath for 12 h
Protocol: (§1) Thawed urine and bile samples (0.5 ml) dissolved in 3 volumes of acetonitrile, and then centrifuged at 8000×g for 15 min. The supernatant was passed through a 0.45 μm Millipore syringe filter (Nihon Millipore, Tokyo, Japan) for LC/MS-MS analysis. […] After treating the bile sample as described above, the amount of M1 was calculated by PAD-HPLC.

[2] = tested on: rat (RIB) or human (HIB) intestinal bacteria; test: Metabolism of Antrodin C and metabolites by intestinal bacteria in vitro; format: in vitro ADME
Protocol: Mixtures of rat (RIB) or human (HIB) intestinal bacteria (5 g each) prepared as described (Xie L H, et al. 2003 Biol Pharm Bull 51: 378-384), together with Antrodin C (5 mg) dissolved in Tween 20 (0.5 ml), M1 (5 mg) dissolved in water (1.0 ml) or rat bile samples (10 ml) with metabolites M2-M4, which were collected after oral administration of Antrodin C, were added to GAM broth (50 ml), and anaerobically incubated at 37° C. for 3 d. The incubation mixture was extracted with 3 volumes of acetonitrile, and then passed through a 0.45 μm filter. […] Moreover, the metabolites (M2-M4) in bile samples, which were collected after oral administration of Antrodin C in rats, could absolutely transferred to M1 after 30 min incubation.

[3] = Identification of metabolites in rat feces, bile, plasma and urine by LC/MS-MS after administration of Antrodin C; format: in vivo
Protocol: The metabolites in feces, bile and plasma were analyzed by LC/MS-MS. The LC/MS-MS equipment comprised a column containing TSK gel ODS-80 Ts (particle size, 5 μm; 4.6×150 mm i.d., Tosoh Co., Tokyo, Japan). Samples were eluted through the column with 0.1% AcOH and acetonitrile (35:65) at a flow rate of 1 ml/min at 30° C. The standard negative ion mode was selected under the following conditions: full scan range, 50-800 m/z; scan resolution, 13000 m/z/sec; nebulizer, 50.0 psi; dry gas, 10.0 l/min; dry temperature, 360° C. Full scanning in the region of m/z 50 to 600 assigned several peaks to Antrodin C and the metabolites in the […] when compared with those of blank samples (FIG. 3). […] Comparing to standard materials and synthesized compounds, the peak in the MS profile at m/z 328 [M-H]^− with retention time (tR)=8.2 min was derived from Antrodin C (MW 329), and M1 (m/z 331 [M-H]^−, tR=4.4 min) was dicarboxylic acid by hydrolysis of Antrodin C; M2 and M3 (m/z 345 [M-H]^−, tR=7.7 and 8.4 min), which were 14 larger than those of M1, were two kinds of monomethyl esters of M1; M4 (m/z 313 [M-H]^−, tR=21.6 min) was Antrodin A and M5 (m/z 312 [M-H]^−, tR=11.5 min) was Antrodin B. The structures of Antrodin C and its metabolites were shown in FIG. 5.

[4] = Pharmacokinetics of M1 in rat bile after P.O. and I.V. administration of Antrodin C (PAD-HPLC); conditions: for Accumulated excretion ratio: rat bile
Protocol: (§2) Male Wistar rats (9 weeks old) purchased from SLC Co. (Hamamastu, Japan), were fed with standard laboratory chow for one week, fasted overnight and given free access to water before drug administration. […] The animals were light anesthetized with diethyl ether during surgical procedures. Bile samples (n=5) was collected by cannulating a polyethylene tube (PE-10) into the rat bile duct at intervals of 0, 0.25, 0.5, 1, 2, 4, 8, 12, 24, 36 and 48 h after oral (50 mg/kg) and intravenous (10 mg/kg) administration of Antrodin C. […] The blood samples were centrifuged at 8000×g for 15 min to separate the plasma, and then all samples were stored at −20° C. for later analysis.
as §1
(§3) The concentration-time data in rat bile (n=5) were computer fitted using a program of Pharmacokineitics 3p97 edited by the Mathematics Pharmacological Committee, Chinese Pharmacological Society. The following pharmacokinetic parameters were obtained: half-time of absorption phase (t1/2 (Kα)) and half-time of elimination phase (t1/2 (Kβ)) in the bile samples after oral administration of Antrodin C at the dose of 50 mg/kg. The area under the concentration-time curve (AUC(i.v.) and AUC(p.o.)) was calculated by the statistical moment method of non-compartmental pharmacokinetic analysis. And then clearance (Clm, b) and absolute bioavailability (Fm, b) were calculated by the equations as following: Clm, b (ml/h·kg)=Dose(i.v.)/AUC(i.v.) and Fm, b (%)=AUC(p.o.)·Dose(i.v.)/[AUC(i.v.)·Dose(p.o.)]. Data were expressed mean and standard deviation (S.D.) for each group.

[5] = tested on: hepatitis model induced by LPS; test: Hepatitis model induced by LPS; conditions: in vivo
in vivo = conditions: male, Wistar, rat
Protocol: as §2, §1, §3

Structure (SMILES): CC(C)=CCOc1ccc(C2=C(CC(C)C)C(=O)NC2=O)cc1 [M5, Antrodin B]
Cytotoxic activity against LLC cells (LLC cells): confirmed

Conversion in diluted bile [1]: thoroughly converted to M1
Structure (SMILES): COC(=O)/C(=C(/CC(C)C)C(=O)O)c1ccc(OCC=C(C)C)cc1 [M2, (2Z)-2-isobutyl-3-{4-[(3-methylbut-2-en-1-yl)oxy]phenyl}but-2-enedioic acid 4-methyl ester]

Metabolism by intestinal bacteria [2]: converted to M5
Metabolites found in feces ([3]; rat feces after administration of Antrodin C): M1-M3, M5 with original Antrodin C
Metabolites found in plasma ([3]; rat plasma after administration of Antrodin C): M1 with another unknown peak
Metabolites found in urine ([3]; rat urine after administration of Antrodin C): neither metabolite nor Antrodin C
Accumulated excretion ratio ([4]; I.V. 10 mg/kg Antrodin C): 56.85±13.40
Accumulated excretion ratio ([4]; P.O. 50 mg/kg Antrodin C): 5.46±1.62%
Main excretion pathway ([4]; rats): bile-feces pathway
Structure (SMILES): CC(C)=CCOc1ccc(C2=C(CC(C)C)C(=O)N(O)C2=O)cc1 [Antrodin C]
Cytotoxic activity against LLC cells (LLC cells): confirmed
Effect against hepatitis model induced by LPS [5]: protective effect

Conversion in diluted bile [1]: thoroughly converted to M1
Structure (SMILES): CC(C)=CCOc1ccc(C2=C(CC(C)C)C(=O)OC2=O)cc1 [M4, Antrodin A]

Structure (SMILES): CC(C)=CCOc1ccc(/C(C(=O)O)=C(\CC(C)C)C(=O)O)cc1 [M1, (2Z)-2-isobutyl-3-{4-[(3-methylbut-2-en-1-yl)oxy]-phenyl}but-2-enedioic acid]
bioavailability (in vivo): 19.4%
AUC (in vivo; iv, 10 mg/kg): 1680 µg·h/mL
clearance (in vivo; iv, 10 mg/kg): 5.96 mL/h/kg
AUC (in vivo; po, 50 mg/kg): 1610 µg·h/mL
half-life (in vivo; po, 50 mg/kg, t1/2 (kα), half-time of absorption phase): 0.95 h
half-life (in vivo; po, 50 mg/kg, t1/2 (kβ), half-time of elimination phase): 12.6 h
Metabolism by intestinal bacteria ([2]; GAM broth, anaerobic incubation at 37° C. for 3 d): not metabolized

Conversion in diluted bile [1]: thoroughly converted to M1
Structure (SMILES): COC(=O)/C(CC(C)C)=C(\C(=O)O)c1ccc(OCC=C(C)C)cc1 [M3, (2Z)-2-isobutyl-3-{4-[(3-methylbut-2-en-1-yl)oxy]phenyl}but-2-enedioic acid 1-methyl ester]
